This is an account of results in patent publication US4319028A, “7-(2-(Substituted benzoyl)amino)acetamido)cephalosporins” (Eli Lilly and Company, priority 1976, dated 1982).

In one series the test system is Shigella sp. As to the kind of experiment: Antibiotic activity (MIC), Gradient Plate in vitro method, Shigella sp. The series is classed as cell-based. The note with it: read-out: Minimum Inhibitory Concentration. An excerpt: (§1) The antibiotic activity of the cephalosporin compounds of the present invention is illustrated by the data presented in Table I for representative compounds. The values in the table are the minimum inhibitory concentrations (MIC) for the test compounds against the indicated microorganisms. The MIC values were obtained in the Gradient Plate in vitro method for determining antibiotic activity.

A further series deals with Escherichia coli. As to the kind of experiment: Antibiotic activity (MIC), Gradient Plate in vitro method, Escherichia coli. The class given is cell-based. The note with it: read-out: Minimum Inhibitory Concentration. An excerpt:
(§2) The values in the table are the minimum inhibitory concentrations (MIC) for the test compounds against the indicated microorganisms. The MIC values were obtained in the Gradient Plate in vitro method for determining antibiotic activity.

A further series deals with Klebsiella pneumoniae. Kind of series: Antibiotic activity (MIC), Gradient Plate in vitro method, Klebsiella pneumoniae. The series is classed as cell-based. Particulars: read-out: Minimum Inhibitory Concentration.
Excerpt: as §2

Another series has as its system Aerobacter Aerogenes. Kind of series: Antibiotic activity (MIC), Gradient Plate in vitro method, Aerobacter Aerogenes. Particulars: Klebsiella aerogenes, read-out: Minimum Inhibitory Concentration. The series is classed as cell-based.
Excerpt: as §2

For another series, the system named is Salmonella heidelberg. Kind of series: Antibiotic activity (MIC), Gradient Plate in vitro method, Salmonella heidelberg. Particulars: Salmonella enterica, read-out: Minimum Inhibitory Concentration. The class given is cell-based.
Excerpt: as §2

The next series has as its system Pseudomonas Aeruginosa. Kind of series: Antibiotic activity (MIC), Gradient Plate in vitro method, Pseudomonas Aeruginosa. The class given is cell-based. Particulars: read-out: Minimum Inhibitory Concentration.
Excerpt: as §2

The test system of a further series is Serratia marcescens. As to the kind of experiment: Antibiotic activity (MIC), Gradient Plate in vitro method, Serratia marcescens. The class given is cell-based. Particulars: read-out: Minimum Inhibitory Concentration.
Excerpt: as §1

Series [1] relates to V41 (penicillin resistant Staphylococcus). Kind of series: Antibiotic activity (MIC), Gradient Plate in vitro method, V41. Particulars: Gradient Plate in vitro; V41, penicillin resistant Staphylococcus; read-out: Minimum Inhibitory Concentration. The class given is cell-based.
Excerpt: as §1
(§3) ^1 Test organisms V41, V32, and V84 are penicillin resistant

Series [2] concerns V32 (penicillin resistant Staphylococcus). Kind of series: Antibiotic activity (MIC), Gradient Plate in vitro method, V32. The series is classed as cell-based. The note with it: read-out: Minimum Inhibitory Concentration.
Excerpt: as §1, §3

Series [3] has as its system X466 (methicillin resistant Staphylococcus). As to the kind of experiment: Antibiotic activity (MIC), Gradient Plate in vitro method, X466. The class given is cell-based. Particulars: read-out: Minimum Inhibitory Concentration. An excerpt:
The antibiotic activity of the cephalosporin compounds of the present invention is illustrated by the data presented in Table I for representative compounds. The values in the table are the minimum inhibitory concentrations (MIC) for the test compounds against the indicated microorganisms. The MIC values were obtained in the Gradient Plate in vitro method for determining antibiotic activity. […]

For series [4], the system named is V84 (penicillin resistant Staphylococcus). As to the kind of experiment: Antibiotic activity (MIC), Gradient Plate in vitro method, V84. The series is classed as cell-based. Particulars: read-out: Minimum Inhibitory Concentration.
Excerpt: as §1, §3

The next series in a line: Titration (pKa). The class given is physicochemical. Particulars: 66% dmf-34% h2o, titration (66% DMF-34% H2O).
[5] abbreviates: Gradient Plate in vitro, V32, penicillin resistant Staphylococcus.
The mark [6] stands for this setting: Gradient Plate in vitro, V84, penicillin resistant Staphylococcus.
The mark [7] stands for this setting: first pKa, read-out: pKa (first value).

Converted amounts (≈) assume the structure as drawn. Read-outs that look alike come from different tables or passages of the source. Bounds are passed on as bounds.

A word on the pKa: it is the pH at which an ionisable group is half protonated. Consider `Cc1nnc(SCC2=C(C(=O)O)N3C(=O)C(NC(=O)[C@H](NC(=O)c4cc(O)c(O)c(O)c4)c4ccc(O)cc4)C3SC2)s1` (stereo partly drawn) [Example 6, 7-[D-[2-(4-Hydroxyphenyl)-2-[(3,4,5-trihydroxybenzoyl)-amino]acetyl]amino]-3-[[(5-methyl-1,3,4-thiadiazol-2-yl)thio]methyl]-3-cephem-4-carboxylic acid], for which the MIC in the series on Shigella sp. was 5.8 µg/mL (≈ 8.98 µM); in the series with Escherichia coli it was 21.7 µg/mL (≈ 33.6 µM); with Klebsiella pneumoniae it was 3.9 µg/mL (≈ 6.04 µM); with Aerobacter Aerogenes, 8.4 µg/mL (≈ 13 µM); in the series on Salmonella heidelberg, 0.7 µg/mL (≈ 1.08 µM); in the series with Pseudomonas Aeruginosa, 6 µg/mL (≈ 9.29 µM). Besides, the MIC with Serratia marcescens is above 200 µg/mL; in series [1] it was 6.6 µg/mL (≈ 10.2 µM); in series [2] (setting [5]), 8.6 µg/mL (≈ 13.3 µM); in series [3], 130 µg/mL (≈ 201 µM); in series [4] (setting [6]) it was 3.2 µg/mL (≈ 4.96 µM). In addition, the pKa in the series “Titration (pKa)” (setting [7]) was found to be 4.88.

As for `Cc1nnc(SCC2=C(C(=O)O)N3C(=O)C(NC(=O)[C@H](NC(=O)c4ccc(O)c(O)c4O)c4ccc(O)cc4)C3SC2)s1` (stereo partly drawn) [Example 7, 7-[D-[2-(4-Hydroxyphenyl)-2-[(2,3,4-trihydroxybenzoyl)-amino]-acetyl]amino]-3-[[(5-methyl-1,3,4-thiadiazol-2-yl)thio]methyl]-3-cephem-4-carboxylic acid], the MIC in the series on Shigella sp. came out at 50 µg/mL (≈ 77.4 µM); in the series on Escherichia coli, 100 µg/mL (≈ 155 µM); in the series with Klebsiella pneumoniae it was 52.5 µg/mL (≈ 81.3 µM); in the series on Aerobacter Aerogenes it was 57.5 µg/mL (≈ 89.1 µM); with Salmonella heidelberg, 16 µg/mL (≈ 24.8 µM); in the series with Pseudomonas Aeruginosa, 25 µg/mL (≈ 38.7 µM). For the same compound, the MIC in the series with Serratia marcescens was above 200 µg/mL; in [1], 60 µg/mL (≈ 92.9 µM); in series [2] (setting [5]), 60 µg/mL (≈ 92.9 µM); in series [3], above 200 µg/mL; in series [4] (setting [6]), 25 µg/mL (≈ 38.7 µM).

Turning to `Cc1nnc(SCC2=C(C(=O)O)N3C(=O)C(NC(=O)[C@H](NC(=O)c4c(O)cc(O)cc4O)c4ccc(O)cc4)C3SC2)s1` (stereo partly drawn) [Example 8, 7-[D-[2-(4-Hydroxyphenyl)-2-[(2,4,6-trihydroxybenzoyl)-amino]acetyl]amino]-3-[[(5-methyl-1,3,4-thiadiazol-2-yl)thio]methyl]-3-cephem-4-carboxylic acid], the MIC with Shigella sp. amounted to 100 µg/mL (≈ 155 µM); with Escherichia coli, 120 µg/mL (≈ 186 µM); in the series on Klebsiella pneumoniae, 110 µg/mL (≈ 170 µM); with Aerobacter Aerogenes, 140 µg/mL (≈ 217 µM); with Salmonella heidelberg, 110 µg/mL (≈ 170 µM); in the series with Pseudomonas Aeruginosa it was 100 µg/mL (≈ 155 µM). The MIC with Serratia marcescens was above 200 µg/mL; in [1] it was 10.5 µg/mL (≈ 16.3 µM); in series [2] (Staphylococcus), 10 µg/mL (≈ 15.5 µM); in [3], 120 µg/mL (≈ 186 µM); in [4] (Staphylococcus), 10 µg/mL (≈ 15.5 µM).

As to `Cn1c(SCC2=C(C(=O)O)N3C(=O)C(NC(=O)[C@H](NC(=O)c4cccc(O)c4O)c4ccc(O)cc4)C3SC2)nnc(O)c1=O` (stereo partly drawn) [Example 9, 7-[D-[2-(4-Hydroxyphenyl)-2-[(2,3-dihydroxybenzoyl)-amino]acetyl]amino]-3-[[(4,5-dihydro-6-hydroxy-4-methyl-5-oxo-1,2,4-triazin-3-yl)thio]methyl]-3-cephem-4-carboxylic acid], the MIC came to 8 µg/mL (≈ 12.2 µM) with Shigella sp.; 22.5 µg/mL (≈ 34.3 µM) in the series with Escherichia coli; 3.9 µg/mL (≈ 5.94 µM) in the series with Klebsiella pneumoniae; 11 µg/mL (≈ 16.8 µM) with Aerobacter Aerogenes; 1 µg/mL (≈ 1.52 µM) in the series on Salmonella heidelberg; 124 µg/mL (≈ 189 µM) in the series on Pseudomonas Aeruginosa. In addition, the MIC is above 200 µg/mL in the series with Serratia marcescens; 16.2 µg/mL (≈ 24.7 µM) in series [1]; 14 µg/mL (≈ 21.3 µM) in series [2] (setting [5]); above 200 µg/mL in series [3]; 11.6 µg/mL (≈ 17.7 µM) in series [4] (setting [6]). In addition, the pKa worked out at 4.99 in “Titration (pKa)” (setting [7]) and 8.89 in “Titration (pKa)” (second pKa, read-out: pKa (second value)).

With `Cc1nnc(SCC2=C(C(=O)O)N3C(=O)C(NC(=O)[C@H](NC(=O)c4ccc(N)c(N)c4)c4ccc(O)cc4)C3SC2)s1` (stereo partly drawn) [Example 13, 7-[D-[2-(4-Hydroxyphenyl)-2-[(3,4-diaminobenzoyl)amino]-acetyl]amino]-3-[[(5-methyl-1,3,4-thiadiazol-2-yl)-thio]methyl]-3-cephem-4-carboxylic acid], the MIC came to 13.8 µg/mL (≈ 22 µM) with Shigella sp.; 19 µg/mL (≈ 30.3 µM) with Escherichia coli; 14.8 µg/mL (≈ 23.6 µM) in the series on Klebsiella pneumoniae; 33.2 µg/mL (≈ 52.9 µM) in the series on Aerobacter Aerogenes; 14.6 µg/mL (≈ 23.3 µM) in the series with Salmonella heidelberg; 31.5 µg/mL (≈ 50.2 µM) in the series with Pseudomonas Aeruginosa. Moreover, the MIC was found to be 116 µg/mL (≈ 185 µM) in the series with Serratia marcescens; 4.6 µg/mL (≈ 7.33 µM) in series [1]; 5.2 µg/mL (≈ 8.28 µM) in series [2] (setting [5]); 126 µg/mL (≈ 201 µM) in [3]; 5 µg/mL (≈ 7.97 µM) in series [4] (Staphylococcus).
